Experimental data reported in paper PMC11011439, “Influence of Molecular Design on the Tumor Targeting and Biodistribution of PSMA-Binding Tracers Labeled with Technetium-99m” (International Journal of Molecular Sciences, 2024).

Assays:
[1] = of the [99mTc]Tc-labeled ligand; cited from earlier work
PSMA = target: T1, PSMA (Homo sapiens, UniProt Q04609); experiment: Real-time binding kinetics on living PC3-pip cells (LigandTracer Yellow); conditions: 5 nM tracer, 1:2 interaction model; for Kd: read-out: KD1
T1 construct: expressed in transfected cells; host or cells: PC3-pip cells (from Prof. Martin G. Pomper, Johns Hopkins University)
T1 sequence (Q04609 whole entry): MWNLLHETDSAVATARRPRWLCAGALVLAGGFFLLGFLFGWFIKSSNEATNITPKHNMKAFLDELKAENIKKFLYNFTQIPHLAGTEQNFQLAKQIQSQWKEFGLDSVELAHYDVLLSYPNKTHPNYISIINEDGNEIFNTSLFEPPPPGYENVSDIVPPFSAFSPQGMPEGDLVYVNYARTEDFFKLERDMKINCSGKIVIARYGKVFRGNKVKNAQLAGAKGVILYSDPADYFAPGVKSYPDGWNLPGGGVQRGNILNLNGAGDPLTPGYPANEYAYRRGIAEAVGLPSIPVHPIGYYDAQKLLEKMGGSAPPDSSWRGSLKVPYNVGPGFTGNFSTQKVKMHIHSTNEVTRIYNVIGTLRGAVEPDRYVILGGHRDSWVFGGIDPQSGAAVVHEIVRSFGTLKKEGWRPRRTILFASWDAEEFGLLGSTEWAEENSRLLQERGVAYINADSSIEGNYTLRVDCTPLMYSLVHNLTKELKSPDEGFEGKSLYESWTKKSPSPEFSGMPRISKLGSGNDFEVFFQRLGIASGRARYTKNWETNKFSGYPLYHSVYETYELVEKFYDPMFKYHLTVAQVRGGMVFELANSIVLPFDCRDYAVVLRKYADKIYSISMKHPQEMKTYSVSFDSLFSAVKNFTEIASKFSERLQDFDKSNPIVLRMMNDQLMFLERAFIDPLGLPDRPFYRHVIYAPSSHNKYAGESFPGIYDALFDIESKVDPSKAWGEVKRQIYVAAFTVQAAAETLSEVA
Protocol: The binding kinetics of [^99mTc]Tc-labeled BQ0411, BQ0412, and BQ0413 were measured in real time using LigandTracer Yellow Instruments (Ridgeview Instruments AB, Uppsala, Sweden) on PC3-pip cells, as described earlier. The activity binding was recorded at 5 nM on the radiolabeled tracers for 150 min. After measuring the binding kinetics, the medium containing the labeled tracer was replaced with fresh medium, and the dissociation was monitored over 7 h. […]

[2] = Biodistribution in NMRI mice; assay type: in vivo; conditions: for activity in carcass / activity in intestines with content / uptake in blood / uptake in kidney / uptake in liver / uptake in lung / uptake in salivary glands / uptake in spleen / uptake in stomach: 40 pmol/mouse iv
Protocol: Four NMRI mice were intravenously injected with 40 pmol of the radiotracer (60 kBq, the mass of the injected compound was adjusted with an unlabeled tracer). The mice were euthanized with a lethal intraperitoneal injection of ketamine/xylazine, followed by exsanguination at 3 and 24 h post-injection (pi). The organs of interest were collected, weighed, and measured for their activity content using a gamma counter. The uptake activity in organs was calculated as the percentage of injected activity per gram (%IA/g) for the blood, salivary glands, lungs, liver, spleen, stomach, and kidneys and as %IA for the remaining carcass and the rest of the intestines with content.

[3] = system: PSMA-expressing prostate cancer xenografts (PC3-pip); experiment: Biodistribution and tumor targeting in PC3-pip tumor-bearing mice; assay type: in vivo, BALB/c nu/nu mice; conditions: 3 h pi
Protocol: PSMA-expressing prostate cancer xenografts were implanted in BALB/c nu/nu mice by subcutaneous injection of PC3-pip cell suspension in PBS (10^7 cells/animal in 100 µL). The average tumor weight was 0.3 ± 0.2 g at the time of the experiment. Four mice per data point were used. Mice were intravenously injected with 5 nmol of the radiotracer (60 kBq, the mass of the injected compound was adjusted with an unlabeled tracer). The mice were euthanized 3 h pi, and the samples were treated as described above.

[4] = Octanol/water distribution coefficient (LogD); assay type: physicochemical; conditions: n-octanol / Milli-Q water
Protocol: The LogD was determined experimentally based on the procedure described earlier. Briefly, the radiolabeled compound of interest was added to a LoBind Eppendorf tube (Eppendorf, Hamburg, Germany) containing Milli-Q water (500 μL) and n-octanol (500 μL), and the mixture was vortexed and centrifuged. Thereafter, three fractions from each phase were collected and the activity was measured using a gamma counter. The LogD was calculated by dividing the average activity measured in octanol by the average activity measured in water.

Question: With CC(=O)N[C@@H](CCCCNC(=O)CNC(=O)CNC(=O)CNC(=O)CNC(=O)CS)C(=O)NCCCCCCCC(=O)N[C@@H](Cc1ccc(O)cc1)C(=O)N[C@@H](Cc1ccc2ccccc2c1)C(=O)NCCCC[C@H](NC(=O)N[C@@H](CCC(=O)O)C(=O)O)C(=O)O [BQ0411] as the molecule, how does the overall charge [1] read?
Answer: −1

Question: For CC(=O)N[C@@H](CCCCNC(=O)CNC(=O)CNC(=O)CNC(=O)CS)C(=O)NCCCCCCCC(=O)N[C@@H](Cc1ccc(O)cc1)C(=O)N[C@@H](Cc1ccc2ccccc2c1)C(=O)NCCCC[C@H](NC(=O)N[C@@H](CCC(=O)O)C(=O)O)C(=O)O [BQ0412], which overall charge [1] is on record?
Answer: −1

Question: For CC(=O)N[C@@H](CCCCNC(=O)CNC(=O)C(CCC(=O)O)NC(=O)C(CCC(=O)O)NC(=O)C(CCC(=O)O)NC(=O)CS)C(=O)NCCCCCCCC(=O)N[C@@H](Cc1ccc(O)cc1)C(=O)N[C@@H](Cc1ccc2ccccc2c1)C(=O)NCCCC[C@H](NC(=O)N[C@@H](CCC(=O)O)C(=O)O)C(=O)O (stereo partly drawn) [BQ0413], which overall charge [1] is on record?
Answer: −4

Question: With CC(=O)NC(CCCCNC(=O)CNC(=O)C[N]1C(=O)C[N]2C(=O)C[N]3C(=O)C[S][TcH]132=[O])C(=O)NCCCCCCCC(=O)NC(Cc1ccc(O)cc1)C(=O)NC(Cc1ccc2ccccc2c1)C(=O)NCCCCC(NC(=O)NC(CCC(=O)O)C(=O)O)C(=O)O (stereo not drawn) [[^99mTc]Tc-BQ0411] as the molecule, how does the Kd (PSMA) read?
Answer: 0.604 nM

Question: For CC(=O)N[C@@H](CCCCNC(=O)C[N]1C(=O)C[N]2C(=O)C[N]3C(=O)C[S][TcH]132=[O])C(=O)NCCCCCCCC(=O)N[C@@H](Cc1ccc(O)cc1)C(=O)N[C@@H](Cc1ccc2ccccc2c1)C(=O)NCCCC[C@H](NC(=O)N[C@@H](CCC(=O)O)C(=O)O)C(=O)O [[^99mTc]Tc-BQ0412], which Kd (PSMA) is on record?
Answer: 0.44 nM

Question: With CC(=O)N[C@@H](CCCCNC(=O)CNC(=O)C(CCC(=O)O)[N]1C(=O)C(CCC(=O)O)[N]2C(=O)C(CCC(=O)O)[N]3C(=O)C[S][99Tc-]312=[O])C(=O)NCCCCCCCC(=O)N[C@@H](Cc1ccc(O)cc1)C(=O)N[C@@H](Cc1ccc2ccccc2c1)C(=O)NCCCC[C@H](NC(=O)N[C@@H](CCC(=O)O)C(=O)O)C(=O)O (stereo partly drawn) [[^99mTc]Tc-BQ0413] as the molecule, how does the activity in carcass ([2]; 3 h pi) read?
Answer: 9 ± 1 %IA/sample

Question: What about the “activity in intestines with content” value ([2]; 3 h pi) of the same molecule?
Answer: 3.8 ± 0.4 %IA/sample

Question: What about the uptake in blood ([2]; 3 h pi) of the same molecule?
Answer: 0.5 ± 0.1 %IA/g

Question: What about the uptake in kidney ([2]; 3 h pi) of the same molecule?
Answer: 242 ± 43 %IA/g

Question: And the uptake in liver ([2]; 3 h pi)?
Answer: 0.7 ± 0.1 %IA/g

Question: What about the uptake in lung ([2]; 3 h pi) of the same molecule?
Answer: 1.0 ± 0.3 %IA/g

Question: What about the “uptake in salivary glands” value ([2]; 3 h pi) of the same molecule?
Answer: 3.0 ± 0.1 %IA/g

Question: And the uptake in spleen ([2]; 3 h pi)?
Answer: 1.2 ± 0.3 %IA/g

Question: What about the uptake in stomach ([2]; 3 h pi) of the same molecule?
Answer: 3.1 ± 0.5 %IA/g

Question: What about the activity in carcass ([2]; 24 h pi) of the same molecule?
Answer: 1.4 ± 0.2 %IA/sample

Question: And the “activity in intestines with content” value ([2]; 24 h pi)?
Answer: 0.5 ± 0.2 %IA/sample

Question: And the uptake in blood ([2]; 24 h pi)?
Answer: 0.05 ± 0.01 %IA/g

Question: What about the uptake in kidney ([2]; 24 h pi) of the same molecule?
Answer: 56 ± 14 %IA/g

Question: And the uptake in liver ([2]; 24 h pi)?
Answer: 0.21 ± 0.03 %IA/g

Question: And the uptake in lung ([2]; 24 h pi)?
Answer: 0.18 ± 0.03 %IA/g

Question: And the “uptake in salivary glands” value ([2]; 24 h pi)?
Answer: 0.30 ± 0.01 %IA/g

Question: What about the uptake in spleen ([2]; 24 h pi) of the same molecule?
Answer: 0.3 ± 0.2 %IA/g

Question: What about the uptake in stomach ([2]; 24 h pi) of the same molecule?
Answer: 1.0 ± 0.5 %IA/g

Question: What about the “washout of activity from kidneys” value ([2]; 24 h pi compared to 3 h pi) of the same molecule?
Answer: 77%

Question: What about the ka1 (PSMA) of the same molecule?
Answer: 33000 M⁻¹ s⁻¹

Question: And the ka2 (PSMA)?
Answer: 2.9e+08 M⁻¹ s⁻¹

Question: What about the kd1 (PSMA) of the same molecule?
Answer: 2.9e-06 s⁻¹

Question: What about the kd2 (PSMA) of the same molecule?
Answer: 2.3e-09 s⁻¹

Question: And the activity in carcass ([3]; 5 nmol/mouse iv)?
Answer: 1.7 ± 0.3 %IA/sample

Question: What about the “activity in intestines with content” value ([3]; 5 nmol/mouse iv) of the same molecule?
Answer: 1.7 ± 0.2 %IA/sample

Question: And the uptake in blood ([3]; 5 nmol/mouse iv)?
Answer: 0.17 ± 0.04 %IA/g

Question: What about the uptake in bone ([3]; 5 nmol/mouse iv) of the same molecule?
Answer: 0.2 ± 0.1 %IA/g

Question: And the uptake in kidney ([3]; 5 nmol/mouse iv)?
Answer: 9 ± 2 %IA/g

Question: What about the uptake in liver ([3]; 5 nmol/mouse iv) of the same molecule?
Answer: 0.3 ± 0.1 %IA/g

Question: And the uptake in lung ([3]; 5 nmol/mouse iv)?
Answer: 0.3 ± 0.1 %IA/g

Question: What about the uptake in muscle ([3]; 5 nmol/mouse iv) of the same molecule?
Answer: 0.06 ± 0.02 %IA/g

Question: What about the uptake in pancreas ([3]; 5 nmol/mouse iv) of the same molecule?
Answer: 0.13 ± 0.02 %IA/g

Question: And the “uptake in salivary glands” value ([3]; 5 nmol/mouse iv)?
Answer: 0.5 ± 0.1 %IA/g

Question: What about the “uptake in small intestine” value ([3]; 5 nmol/mouse iv) of the same molecule?
Answer: 0.2 ± 0.1 %IA/g

Question: And the uptake in spleen ([3]; 5 nmol/mouse iv)?
Answer: 0.9 ± 0.5 %IA/g

Question: What about the uptake in stomach ([3]; 5 nmol/mouse iv) of the same molecule?
Answer: 0.6 ± 0.2 %IA/g

Question: And the uptake in tumor ([3]; 5 nmol/mouse iv)?
Answer: 17 ± 3 %IA/g

Question: And the tumor-to-blood ratio ([3]; 5 nmol/mouse)?
Answer: 94 ± 3

Question: And the tumor-to-bone ratio ([3]; 5 nmol/mouse)?
Answer: 114 ± 29

Question: And the tumor-to-liver ratio ([3]; 5 nmol/mouse)?
Answer: 48 ± 5

Question: And the tumor-to-lung ratio ([3]; 5 nmol/mouse)?
Answer: 52 ± 8

Question: What about the tumor-to-muscle ratio ([3]; 5 nmol/mouse) of the same molecule?
Answer: 284 ± 19

Question: And the tumor-to-pancreas ratio ([3]; 5 nmol/mouse)?
Answer: 137 ± 10

Question: What about the tumor-to-salivary ratio ([3]; 5 nmol/mouse) of the same molecule?
Answer: 31 ± 3

Question: And the tumor-to-small intestine ratio ([3]; 5 nmol/mouse)?
Answer: 126 ± 57

Question: What about the tumor-to-spleen ratio ([3]; 5 nmol/mouse) of the same molecule?
Answer: 16 ± 4

Question: What about the tumor-to-stomach ratio ([3]; 5 nmol/mouse) of the same molecule?
Answer: 24 ± 2

Question: What about the “logD (octanol–water distribution coefficient)” value [4] of the same molecule?
Answer: −2.5 ± 0.1

Question: For CC(=O)N[C@@H](CCCCNC(=O)CNC(=O)C(CCC(=O)O)[N]1C(=O)C(CCC(=O)O)[N]2C(=O)C(CCC(=O)O)[N]3C(=O)C[S][TcH]312=[O])C(=O)NCCCCCCCC(=O)N[C@@H](Cc1ccc(O)cc1)C(=O)N[C@@H](Cc1ccc2ccccc2c1)C(=O)NCCCC[C@H](NC(=O)N[C@@H](CCC(=O)O)C(=O)O)C(=O)O (stereo partly drawn) [[^99mTc]Tc-BQ0413], which Kd (PSMA) is on record?
Answer: 0.089 nM
